Patent US20210038559A1, “CANNABINOIDS AND DERIVATIVES FOR PROMOTING IMMUNOGENICITY OF TUMOR AND INFECTED CELLS” (priority 2018, published 2021)

Experiments:
MHC class I, A9 cells = assay type: cell-based, mouse; settings: 48 hours
Description: FIG. 6. Cannabigerol treatment of A9 cells for 48 hours at various doses increases MHC class I protein expression, as determined by flow cytometry. […] IFN γ treatment was at 5.832×10^−6 in two mL of media.
The effect of cannabigerol on MHC class I in A9 cancer cells were determined as follows. A9 cells (1×10^6) were plated onto a 6 well plate (Corning) in two mL of media. A9 cells were treated after 24 hours at various concentrations of Cannabigerol, 5.832×10^4 nM IFN gamma or DMSO vehicle for 48 hours. Cells were then harvested from the plate as per protocol and half of the cells were checked for MHC class I expression levels using flow cytometry. The Anti-mouse H2 KB APC antibody (Biolegend) was used at 1:200 in FACS buffer (2% FBS in PBS).

A9 tumors = test: A9 tumor mouse model, intraperitoneal treatment; assay type: in vivo
Text: FIG. 7A-7B. Number of live lymphocytes observed within the tumor of tumor bearing mice (n=8 for PBS negative control and Cannabigerol treatments, n=6 for TSA positive control). A9 tumors were present in mice for 7 days before intraperitoneal treatment, and mice were sacrificed 4-5 days after treatment. Cannabigerol upregulation of MHC-I expression attracts increased number of lymphocytes which can infiltrate the tumor.
To confirm the in vivo activity of cannabinoid compounds, a representative cannabinoid was tested in a representative animal model. A9 tumor cells were injected subcutaneously into mice at 8-10 weeks of age, and mice were treated 7 days later with either Cannabigerol, TSA, or Vehicle. 1×10^5 A9 cells were injected in a volume of 50 μL of PBS into the right flank of each mouse subcutaneously. Starting at day 7 after injection of the A9 tumor cells, intraperitoneal injections of Cannabigerol (Cayman Chemical Company) at 10 mg/kg, Trichostatin A (TSAX Sigma-Aldrich) at 0.5 mg/kg dissolved in 1% DMSO and PBS, or vehicle (0.2% DMSO, 5% Bovine Serum Albumin (BSA), in PBS) were administered daily to the animals. Cannabigerol was dissolved in 0.2% DMSO, 5% Bovine Serum Albumin, in PBS. Animals were weighed 3 times a week and during tumor measurements, and tumor measurements were begun upon appearance of the tumor, on […] of the trial. Tumor volume was determined using calipers to measure tumor dimensions. Mice were sacrificed at day 10, 11, and 12, as was dictated by subscribed humane endpoints, in which mice experienced tumor ulceration. Half of the tumors were removed from the mouse and immediately placed in digestion media (RPMI Medium 1640 (Gibco) with 10% FBS and Penicillin+Streptomycin (P+S), with the addition of 10% collagenase hyaluronidase, 15% DNAse I (Stemcell)). Tumors were chopped in 1 mL of digestion media and placed at a temperature of 35° C. for 30 minutes, before being passed through a 100 micron cell strainer (Falcon). […]

[1] = system: MHC-I expression on COLO 205 cells; test: Phytocannabinoid MHC-I induction on COLO 205 cells, 0-100 μM, 48 hours
Description: FIG. 4. Cell surface MHC class I expression was measured by flow cytometry (MFI).
Phytocannabinoids were tested for MHC-I-inducing activity on COLO 205 cells. Each cannabinoid was tested at a concentration range of 0-100 μM. […] “ND” indicates not determined.

[2] = system: CD8+ T cells from OT1 mice co-cultured with A9 cells; test: OT1 CD8+ T cell proliferation (CFSE) in co-culture with […]-loaded A9 cells; assay type: cell-based, mouse
Description: FIG. 8. A proliferation experiment using CD8^+ T cells from […]-primed OT1 mice in response to […] peptide presented on MHC class I of A9 cells. A9 cells were treated with 0.055 μM of Cannabigerol, 5.832×10^−6 nM of IFN gamma positive control. The negative control is named “CFSE and […] CD8^+ T cells”. T cells were labeled with CFSE proliferation dye, which is reduced within the progeny cells as the generations progress.
FIG. 9 MHC Class I expression of A9 cells associated with CD8^+ T cells from […]-primed OT. A9 cells were treated with 0.055 μM of Cannabigerol, or 5.832×10^4 nM of IFN gamma.
A cytolytic assay was performed as follows. A9 cells (1×10^6) were plated onto a 6 well plate in two mL of RPMI media (Advanced RPMI-1640 Medium (Gibco), 100 U/mL of Penicillin-Streptomycin (P+S) (Thermofisher), 1% L-Glutamine (Gibco), and 10% FBS). A9 cells were treated with either Cannabigerol 0.055 μM, 5.832×10^4 nM IFN gamma, or 1% DMSO vehicle. After 24 hours, […] OVA Peptide ([…]) (Genscript), was added to the A9 cells. Following an additional 24 hours, CD8^+ T cells were collected from OT1 mouse spleens. […] An extra well of untreated A9 cells was counted and used as a standard count. CD8^+ T cells were counted and then treated with CFSE (Biolegend) per manufacture protocol, before being co-cultured with A9 cells to a 1:1 ratio or a 1:5 ratio. […]

[3] = 10 mg/kg intraperitoneal daily from day 7, versus Vehicle treated group

CCCCCc1cc(O)c(C/C=C(\C)CCC=C(C)C)c(O)c1 [Example 1, 2-[(2E)-3,7-dimethyl-2,6-octadien-1-yl]-5-pentyl-1,3-benzenediol]
upregulation of class I MHC (MHC class I, A9 cells; 0.0275 μM): less upregulation
class I MHC expression (MHC class I, A9 cells; 0.055 μM, relative to vehicle (DMSO), p value <0.0001, one-way ANOVA): significant increase
absolute numbers of lymphocytes in tumors (A9 tumors; 10 mg/kg intraperitoneal daily from day 7, relative to vehicle treated tumors): Much higher
Mouse weight (A9 tumors; [3]): similar
tumor volume (A9 tumors; [3]): similar
EC50 ([1]; Homo sapiens, COLO 205, 48 h): 40 µM
Fold Induction ([1]; MHC-I expression on COLO 205 cells, 0-100 μM, 48 hours, relative to control cells treated only with buffer): 2.7 Fold
MHC class I on the A9 cells associated with the OT1 T cells ([2]; A9 cells treated with 0.055 μM): increase
proliferation of OT1 CD8+ T cells ([2]; A9 cells treated with 0.055 μM for 48 hours prior to co-culture): increased proliferation
